Entries after “also recorded” stand apart in the source; their conditions may differ.
Assays:
[1] = tested on: models of inflammatory pain in rodents; settings: systemic delivery; cited from earlier work
[2] = tested on: rats following ligation of spinal nerves; settings: local (subcutaneous) or systemic administration; cited from earlier work
[3] = tested on: human CB2 receptor versus the human CB1 receptor; assay: selectivity for the human CB2 receptor versus the human CB1 receptor
Procedure: In some embodiments, an agonist compound that is used in the methods described herein has selectivity for the CB2 Receptor. In some embodiments, selectivity refers to the relative in vitro potency of a compound for the CB2 receptor and another receptor. For example, in some embodiments, selectivity refers to the relative in vitro potency of a compound for the CB2 receptor versus the CB1 receptor. In some embodiments, in vitro potency is measured using a second messenger assay. In some embodiments, in vitro potency is measured using a cAMP assay. In some embodiments, selectivity is determined by comparing data generated using a β-arrestin assay. In some embodiments, selectivity is determined by comparing data generated from a GTP-yS binding assay. In some embodiments, selectivity is determined by comparing data generated from a reporter gene assay. In some embodiments, selectivity is determined by comparing data generated for a biomarker. In some embodiments, in vitro potency is quantified as EC50. In some embodiments, selectivity refers to the relative binding affinity of an agonist for the CB2 receptor and another receptor. In some embodiments, binding affinity is quantified as Ki.

CB2 receptor [4] = target: T1, CB2 receptor (Homo sapiens, UniProt P34972); assay: CB2 receptor internalization efficacy relative to CP55,940; assay type: cell-based
T1 sequence (P34972 whole entry): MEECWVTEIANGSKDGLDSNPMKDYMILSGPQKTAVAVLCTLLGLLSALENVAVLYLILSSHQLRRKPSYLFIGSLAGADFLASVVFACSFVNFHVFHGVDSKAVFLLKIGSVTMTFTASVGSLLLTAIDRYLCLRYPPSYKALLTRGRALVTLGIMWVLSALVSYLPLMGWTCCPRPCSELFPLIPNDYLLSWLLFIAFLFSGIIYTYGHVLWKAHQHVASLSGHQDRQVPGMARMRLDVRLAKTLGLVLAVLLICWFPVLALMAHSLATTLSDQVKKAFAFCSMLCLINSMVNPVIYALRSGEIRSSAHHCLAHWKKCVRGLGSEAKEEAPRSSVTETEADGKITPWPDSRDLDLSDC
Description: (§1) In certain instances, the CB2 receptor agonist compounds identified using the HTRF® assay, the PathHunter-arrestin assay, and the radioligand binding assay can be tested for CB2 receptor internalization to select those agonists that induce robust internalization of the receptor in order to maintain a sufficient level of signaling for sustained in vivo efficacy. In certain embodiments, such agonists are preferred in the methods described herein.
(§2) Receptor internalization can be measured using a number of methods, including but not limited to measuring a loss of labeled receptor from the cell surface (e.g., using flow cytometry) measuring the appearance of receptors internalized in the cell (e.g., in characteristic punctate intracellular vesicles), and/or measuring the return of receptors recycled to the cell surface. For example, the number, density, and/or staining intensity of granules in the cell can be quantified. Receptor internalization can be measured using any appropriate method known to those of skill in the art. […]

rat CB2 receptor = rat CB2 receptor (Rattus norvegicus, UniProt Q9QZN9); assay: as above; assay type: cell-based
Chain of rat CB2 receptor (Q9QZN9 whole entry): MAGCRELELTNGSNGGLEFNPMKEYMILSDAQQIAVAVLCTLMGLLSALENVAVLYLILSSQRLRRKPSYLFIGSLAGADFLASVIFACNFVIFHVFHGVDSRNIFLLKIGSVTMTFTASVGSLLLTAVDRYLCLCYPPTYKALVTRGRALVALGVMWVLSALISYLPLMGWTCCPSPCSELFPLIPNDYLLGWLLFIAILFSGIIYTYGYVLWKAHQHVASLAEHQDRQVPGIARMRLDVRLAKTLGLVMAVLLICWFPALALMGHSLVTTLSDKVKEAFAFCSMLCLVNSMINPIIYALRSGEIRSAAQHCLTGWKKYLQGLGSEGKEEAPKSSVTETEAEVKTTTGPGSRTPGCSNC
Description: as §1, §2

CB2 receptor [5] = target: T1, CB2 receptor; assay: internalization of the CB2 receptor in a cell; assay type: cell-based
Description: In some embodiments, the selective CB2 receptor agonist increases internalization of the CB2 receptor in a cell to at least 75%, at least 80%, at least 85%, at least 90%, at least 95%, at least 96%, at least 97%, at least 98%, or at least about 99% the level of internalization that would occur if the cell were contacted with CP55,940. In some embodiments, the CB2 receptor agonist that increases internalization of the CB2 receptor to at least 90% of CP55,940 is selected from: Compound B, Compound E, Compound G, and Compound H. CP55,940 has the following chemical structure: […]
as §2

CB2 receptor [6] = target: T1, CB2 receptor; assay: CB2 receptor agonism; assay type: cell-based
Description: Other CB2 receptor agonist compounds can be identified e.g., using the Homogeneous Time-Resolved Fluorescence (HTRF®) Assay for direct cAMP measurement (Gabriel et al., ASSAY and Drug Development Technologies, 1:291-303, 2003) (see, e.g., Example 2 of WO2011/025541). Compounds can be screened for agonism of the CB2 receptor (e.g., human CB2 receptor) using the HTRF® assay for direct cAMP measurement (assay kit sold by Cisbio-US, Inc., Bedford, Mass.; Catalog #62AM4PEC) in recombinant CHO-K1 cells stably transfected with the CB2 receptor. […] The specific signal (i.e., fluorescence resonance energy transfer, FRET) is inversely proportional to the concentration of unlabeled cAMP in the standard or sample. An agonist of the CB2 receptor is detected in the HTRF® assay for direct cAMP measurement when a compound decreases cAMP concentration. […]
CB2 receptor agonist compounds can also be identified using the DiscoveRx PathHunter β-arrestin assay which measures the β-arrestin binding to the CB2 receptor upon its activation (see, e.g., Example 3 of WO2011/025541). […] Binding of β-arrestin to the activated GPCR causes the complementation of the two enzyme fragments, forming an active β-galactosidase enzyme which can be measured using the chemiluminescent PathHunter Flash Detection Kit (DiscoveRx, Fremont, Calif.: catalog #93-0001).

[7] = tested on: osteoarthritis pain model; assay: osteoarthritis pain model; assay type: in vivo
[8] = tested on: paclitaxel-induced neuropathic pain model; assay: paclitaxel-induced neuropathic pain model; settings: in vivo
[9] = tested on: painful peripheral diabetic neuropathy model; assay: painful peripheral diabetic neuropathy model; settings: in vivo
preclinical animal model = preclinical animal model studies, cardiovascular effects; assay type: in vivo
healthy human subjects [10] = assay: phase 1a single ascending dose clinical trial; assay type: in vivo
Procedure: A phase 1a randomized, double-blind, placebo-controlled single ascending dose clinical trial was performed in 56 healthy human subjects to assess the safety, tolerability, and pharmacokinetics of APD371 (Compound B). Doses of 10 mg, 20 mg, 30 mg, 60 mg, 120 mg, 250 mg, and 400 mg were administered. Subjects were in the clinic for approximately 9 days (referred to as Day −2 to Day 7). Study medication (APD371 or placebo) was administered on Day 1. Each cohort included eight human subjects, six of whom were administered APD371 and two of whom were administered placebo.
(§3) Vital signs were measured for blood pressure and heart rate in the supine position after resting for five minutes. 12-lead electrocardiograms were used to measure RR, PR, QRS, QT, QTc, QTcB, and QTcF in the recumbent position after resting for 10 minutes. 5-lead electrocardiograms were used for continuous telemetry, with measurements taken during the last five minutes of a resting period of 14 minutes±1 minute in the supine position. Baseline measurements were taken prior to dosing.

healthy human subjects [11] = assay: phase 1b multiple ascending dose clinical trial; assay type: in vivo
Procedure: A phase 1b randomized, double-blind, placebo-controlled multiple ascending dose clinical trial was performed in 36 healthy human subjects to assess the safety, tolerability, and pharmacokinetics of APD371 (Compound B). Doses of 50 mg three times daily (TID), 100 mg TID, and 200 mg TID were administered for 10 days. Subjects were in the clinic for approximately 17 days (referred to as Day −2 to Day 15). Study medication (APD371 or placebo) was administered TID on Days 1-10, and once on Day 11. Each cohort included 12 human subjects, nine of whom were administered APD371 and three of whom were administered placebo.
as §3

[12] = tested on: bovine nasal cartilage explants; settings: in vitro; cited from earlier work
human skin = settings: topical administration; cited from earlier work
EAE mouse model = settings: in vivo; cited from earlier work
[13] = tested on: bone marrow-derived osteoblasts/stromal cells; settings: in vitro; cited from earlier work
[14] = tested on: ovariectomy-induced bone loss; settings: in vivo; cited from earlier work
[15] = tested on: guinea pig vagus nerve preparations; settings: in vitro; cited from earlier work
[16] = tested on: human vagus nerve preparations; settings: in vitro; cited from earlier work
conscious guinea-pigs = settings: given prior to exposure to citric acid; cited from earlier work
[17] = tested on: mouse model for allergic contact dermatitis; settings: subcutaneous injection; cited from earlier work
ApoE knockout mice = settings: mouse, in vivo; cited from earlier work
[18] = 50, 100, 200 mg TID for 10 days

CN1CCCCC1Cn1cc(C(=O)c2cc([N+](=O)[O-])ccc2I)c2ccccc21 (stereo not shown) [AM1241]
hyperalgesia [1]: suppresses hyperalgesia | tactile and thermal hypersensitivity [2]: reverses tactile and thermal hypersensitivity

CC(C)(C)[C@@H](CO)NC(=O)c1nn(-c2c[n+]([O-])ccn2)c2c1C[C@@H]1C[C@H]21 [APD371, (1aS,5aS)-2-(4-Oxy-pyrazin-2-yl)-1a,2,5,5a-tetrahydro-1H-2,3-diaza-cyclopropa[a]pentalene-4-carboxylic Acid ((S)-1-Hydroxymethyl-2,2-dimethyl-propyl)-amide]
selectivity for the human CB2 receptor versus the human CB1 receptor [3]: > 1,000 fold | receptor internalization efficacy relative to CP55,940 (CB2 receptor [4]): 96% | receptor internalization efficacy relative to CP55,940 (rat CB2 receptor): 105% | internalization of the CB2 receptor into cells (CB2 receptor [5]): high level of internalization | agonist efficacy at the CB2 receptor (CB2 receptor [6]): full CB2 receptor agonist | efficacy in model of osteoarthritis pain ([7]; in vivo): sustained efficacy | duration of in vivo efficacy following dosing ([7]; osteoarthritis pain model): maintained in vivo efficacy for four hours following dosing | plasma concentrations ([7]; osteoarthritis pain model, following dosing): rapidly declining plasma concentrations | efficacy in model of paclitaxel-induced neuropathic pain [8]: sustained efficacy | efficacy in model of painful peripheral diabetic neuropathy [9]: sustained efficacy | cardiovascular effects (preclinical animal model): Cardiovascular effects were not seen | systolic and diastolic blood pressure compared to baseline (healthy human subjects [10]; single ascending dose): Variations were also seen | mean change in heart rate compared to baseline (healthy human subjects [10]; single ascending dose, highest doses): increase in heart rate was seen at the highest doses; also recorded: asymptomatic mean increase in heart rate | exposure (healthy human subjects [10]; single doses 10 mg to 400 mg): Dose-responsive exposure was observed | tolerability (healthy human subjects [10]; single doses 10 mg to 400 mg): well tolerated | exposure (healthy human subjects [11]; [18]): Dose-responsive exposure was observed | most common adverse events (healthy human subjects [11]; [18]): headache and nausea | serious adverse events (healthy human subjects [11]; [18]): no serious adverse events reported | severity of adverse events (healthy human subjects [11]; [18]): mild | tolerability (healthy human subjects [11]; [18]): well tolerated with multiple dosing | drug levels relative to those needed to stimulate the CB2 receptor (healthy human subjects [11]; all doses): well above those needed to stimulate the CB2 receptor | discontinuations (healthy human subjects [11]; high-dose group): one discontinuation in the high-dose group due to an adverse event of mild thirst and somnolence | change in blood pressure (healthy human subjects [11]; multiple ascending dose): asymptomatic reductions | change in heart rate (healthy human subjects [11]; multiple ascending dose): asymptomatic reductions

CCCCCCC(C)(C)c1cc(O)c2c(c1)OC(C)(C)[C@@H]1CC=C(CO)C[C@@H]21 [HU-210]
IL-1alpha-stimulated proteoglycan and collagen degradation [12]: significantly inhibit | histamine-induced responses (human skin): reduces these histamine-induced responses

CCCCCCC(C)(C)c1cc(OC)c([C@@H]2C=C(CO)[C@@H]3C[C@H]2C3(C)C)c(OC)c1 [HU-308]
cell recruitment, proliferation and axonal loss (EAE mouse model): markedly reduces the recruitment of immature myeloid cells and T cells, microglial and infiltrating myeloid cell proliferation, and axonal loss | osteoblast numbers and activity, osteoclast precursor proliferation [13]: enhances endocortical osteoblast numbers and activity while simultaneously inhibiting proliferation of osteoclast precursors | bone loss and cortical thickness [14]: attenuates ovariectomy-induced bone loss and stimulates cortical thickness

CCCC(C)(C)c1ccc2c(c1)OC(C)(C)[C@@H]1CC=C(C)C[C@@H]21 [JWH133]
capsaicin-, PGE2-, and hypertonic saline-induced depolarization [15]: reduces capsaicin-, PGE2-, and hypertonic saline-induced depolarization | capsaicin-, PGE2-, and hypertonic saline-induced depolarization [16]: reduces capsaicin-, PGE2-, and hypertonic saline-induced depolarization | cough (conscious guinea-pigs): significantly reduces cough

CCCCCc1cc(O)c2c(c1)OC(C)(C)[C@@H]1CCC(C)=C[C@@H]21 [THC]
severity of clinical disease (EAE mouse model): significantly inhibits the severity of clinical disease | cutaneous inflammation and pruritus (itch) [17]: reduces cutaneous inflammation and the pruritus (itch) | progression of atherosclerosis (ApoE knockout mice): reduces the progression of atherosclerosis

— patent US20190160058A1, “METHODS OF TREATMENT WITH SELECTIVE CB2 RECEPTOR AGONISTS” (Arena Pharmaceuticals, Inc., priority 2016, published 2019)
